Read-outs that look alike come from different tables or passages of the source.
Tests used:
[1] = target: PDGFRβ (Rattus norvegicus (Rat), UniProt Q05030); experiment: PDGFRβ Cellular Assay (PDGFRb P-Y751 HTRF in A10 cells stimulated with PDGF-BB); type: cell-based
In short: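 Rat A10 cells, plated overnight, were treated with compound for 3 hours, then stimulated with PDGF-BB (working stock 100 ng/mL in 10% FBS medium). After lysis, PDGFRβ P-Y751 was detected by HTRF.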

[2] = target: VEGFR2, unphosphorylated (Homo sapiens (Human), UniProt P35968); experiment: VEGFR ADP GLO Assay; type: biochemical
Chain of VEGFR2, unphosphorylated (P35968 20-1356): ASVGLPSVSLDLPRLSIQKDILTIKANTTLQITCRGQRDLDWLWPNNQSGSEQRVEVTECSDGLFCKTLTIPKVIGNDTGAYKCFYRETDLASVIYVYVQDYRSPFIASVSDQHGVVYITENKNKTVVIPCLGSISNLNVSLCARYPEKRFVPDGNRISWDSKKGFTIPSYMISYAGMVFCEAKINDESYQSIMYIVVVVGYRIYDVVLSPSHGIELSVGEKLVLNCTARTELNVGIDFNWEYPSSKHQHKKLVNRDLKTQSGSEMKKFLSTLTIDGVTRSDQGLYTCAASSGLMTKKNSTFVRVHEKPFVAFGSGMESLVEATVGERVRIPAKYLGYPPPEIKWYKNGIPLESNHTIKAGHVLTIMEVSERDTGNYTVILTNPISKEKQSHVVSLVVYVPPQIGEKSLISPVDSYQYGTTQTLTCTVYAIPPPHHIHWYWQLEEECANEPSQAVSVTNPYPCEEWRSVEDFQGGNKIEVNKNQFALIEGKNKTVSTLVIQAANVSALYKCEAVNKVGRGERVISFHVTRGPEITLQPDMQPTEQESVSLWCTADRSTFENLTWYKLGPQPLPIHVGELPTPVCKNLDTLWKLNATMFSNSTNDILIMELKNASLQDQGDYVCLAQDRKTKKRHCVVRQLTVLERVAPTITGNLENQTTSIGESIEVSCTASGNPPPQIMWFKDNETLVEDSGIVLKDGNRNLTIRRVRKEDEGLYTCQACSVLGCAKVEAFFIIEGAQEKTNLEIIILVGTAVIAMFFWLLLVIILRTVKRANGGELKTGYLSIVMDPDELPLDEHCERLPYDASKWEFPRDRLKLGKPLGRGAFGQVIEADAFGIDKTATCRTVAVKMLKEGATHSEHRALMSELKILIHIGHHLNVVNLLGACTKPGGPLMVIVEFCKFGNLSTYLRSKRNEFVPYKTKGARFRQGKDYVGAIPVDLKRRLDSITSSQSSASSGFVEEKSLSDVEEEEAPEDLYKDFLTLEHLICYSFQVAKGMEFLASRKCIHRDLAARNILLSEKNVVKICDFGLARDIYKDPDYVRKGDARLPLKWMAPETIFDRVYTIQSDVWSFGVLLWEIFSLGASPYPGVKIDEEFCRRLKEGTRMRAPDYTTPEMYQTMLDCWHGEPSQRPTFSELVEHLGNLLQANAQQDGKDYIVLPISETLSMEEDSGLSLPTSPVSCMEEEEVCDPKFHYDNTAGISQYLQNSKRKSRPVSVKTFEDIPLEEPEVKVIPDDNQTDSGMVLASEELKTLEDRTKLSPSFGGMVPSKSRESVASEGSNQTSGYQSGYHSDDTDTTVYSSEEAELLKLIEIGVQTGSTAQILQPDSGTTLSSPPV

Chain of PDGFRβ (Q05030 32-1097): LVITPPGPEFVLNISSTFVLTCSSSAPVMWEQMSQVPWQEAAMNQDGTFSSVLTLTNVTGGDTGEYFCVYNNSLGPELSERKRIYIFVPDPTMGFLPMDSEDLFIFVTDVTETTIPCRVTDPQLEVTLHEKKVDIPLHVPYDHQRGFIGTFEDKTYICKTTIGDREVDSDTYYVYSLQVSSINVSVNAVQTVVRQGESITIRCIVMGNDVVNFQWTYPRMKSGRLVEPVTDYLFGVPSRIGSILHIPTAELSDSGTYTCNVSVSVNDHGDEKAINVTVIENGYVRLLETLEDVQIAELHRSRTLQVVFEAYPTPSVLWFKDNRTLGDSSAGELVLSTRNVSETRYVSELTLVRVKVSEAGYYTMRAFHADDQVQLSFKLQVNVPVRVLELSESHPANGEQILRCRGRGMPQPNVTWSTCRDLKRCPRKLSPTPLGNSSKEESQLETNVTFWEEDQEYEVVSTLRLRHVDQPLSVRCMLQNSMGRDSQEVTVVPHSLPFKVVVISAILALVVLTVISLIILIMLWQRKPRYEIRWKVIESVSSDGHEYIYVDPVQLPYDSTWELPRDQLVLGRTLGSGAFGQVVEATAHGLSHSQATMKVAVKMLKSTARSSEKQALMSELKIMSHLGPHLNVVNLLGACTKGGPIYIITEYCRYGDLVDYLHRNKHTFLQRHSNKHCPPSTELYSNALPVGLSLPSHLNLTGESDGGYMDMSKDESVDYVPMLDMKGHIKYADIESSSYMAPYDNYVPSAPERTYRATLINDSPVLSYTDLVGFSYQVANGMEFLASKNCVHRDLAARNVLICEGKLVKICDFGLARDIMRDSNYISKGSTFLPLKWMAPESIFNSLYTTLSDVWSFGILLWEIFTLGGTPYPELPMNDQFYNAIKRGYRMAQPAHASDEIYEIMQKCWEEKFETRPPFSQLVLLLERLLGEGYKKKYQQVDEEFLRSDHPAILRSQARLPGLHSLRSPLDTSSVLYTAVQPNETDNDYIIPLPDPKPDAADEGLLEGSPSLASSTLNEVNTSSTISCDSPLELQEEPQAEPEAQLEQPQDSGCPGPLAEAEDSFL

Row | SMILES | IC50 ([1]; read-out: PDGFR Cellular IC50) | IC50 [2] | IC50 ([1]; PDGFR Cellular IC50)
1 | Cc1ncc(C(=O)NCCN2CCCC23CCC3)cc1NC(=O)c1cnn2cc(-c3cnn(C)c3)sc12 [Example 3, N-(5-((2-(5-azaspiro[3.4]octan-5-yl)ethyl)carbamoyl)-2-methylpyridin-3-yl)-2-(1-methyl-1H-pyrazol-4-yl)pyrazolo[5,1-b]thiazole-7-carboxamide] | 6 nM | 6.98 µM | 
2 | Cc1ncc(NC(=O)CN2CCCC23CC3)cc1NC(=O)c1cnn2cc(-c3cnn(CCO)c3)sc12 [Example 87, N-(5-(2-(4-azaspiro[2.4]heptan-4-yl)acetamido)-2-methylpyridin-3-yl)-2-(1-(2-hydroxyethyl)-1H-pyrazol-4-yl)pyrazolo[5,1-b]thiazole-7-carboxamide] | 1 nM | > 7.5 µM | 
3 | Cc1ncc(NC(=O)CN2Cc3cccnc3C2)cc1NC(=O)c1cnn2cc(-c3cnn(C)c3)sc12 [Example 48, N-(5-(2-(5H-pyrrolo[3,4-b]pyridin-6 (7H)-yl)acetamido)-2-methylpyridin-3-yl)-2-(1-methyl-1H-pyrazol-4-yl)pyrazolo[5,1-b]thiazole-7-carboxamide] | 49.3 nM | > 7.5 µM | 
4 | Cc1ncc(NC(=O)CNC2CCC2)cc1NC(=O)c1cnn2cc(-c3cnn4c3OCCC4)sc12 [Example 494, N-(5-(2-(cyclobutylamino)acetamido)-2-methylpyridin-3-yl)-2-(6,7-dihydro-5H-pyrazolo[5,1-b][1,3]oxazin-3-yl)pyrazolo[5,1-b]thiazole-7-carboxamide] | 9.6 nM | > 7.5 µM | 
5 | Cc1ncc(NC(=O)CN2CCOC(C)(C)C2)cc1NC(=O)c1cnn2cc(-c3cnn(C)c3)sc12 [Example 67, N-(5-(2-(2,2-dimethylmorpholino)acetamido)-2-methylpyridin-3-yl)-2-(1-methyl-1H-pyrazol-4-yl)pyrazolo[5,1-b]thiazole-7-carboxamide] | 8.3 nM | > 7.5 µM | 
6 | Cc1ncc(NC(=O)CN2C3CCC2COC3)cc1NC(=O)c1cnn2cc(-c3cnn(C)c3)sc12 [Example 44, N-(5-(2-(3-oxa-8-azabicyclo[3.2.1]octan-8-yl)acetamido)-2-methylpyridin-3-yl)-2-(1-methyl-1H-pyrazol-4-yl)pyrazolo[5,1-b]thiazole-7-carboxamide] | 23.7 nM | > 7.5 µM | 
7 | Cc1ncc(NC(=O)CCN2CC3CCC2CC3)cc1NC(=O)c1cnn2cc(-c3cnn(C)c3)sc12 [Example 43, N-(5-(3-(2-azabicyclo[2.2.2]octan-2-yl)propanamido)-2-methylpyridin-3-yl)-2-(1-methyl-1H-pyrazol-4-yl)pyrazolo[5,1-b]thiazole-7-carboxamide] | 7.2 nM | > 7.5 µM | 
8 | Cc1ncc(NC(=O)CN2CCCCC23CC3)cc1NC(=O)c1cnn2cc(-c3cnn(CCO)c3)sc12 [Example 86, N-(5-(2-(4-azaspiro[2.5]octan-4-yl)acetamido)-2-methylpyridin-3-yl)-2-(1-(2-hydroxyethyl)-1H-pyrazol-4-yl)pyrazolo[5,1-b]thiazole-7-carboxamide] | 18.4 nM | > 7.5 µM | 
9 | Cc1ncc(NC(=O)CN2CCc3cnccc3C2)cc1NC(=O)c1cnn2cc(-c3cnn(C)c3)sc12 [Example 62, N-(5-(2-(3,4-dihydro-2,6-naphthyridin-2 (1H)-yl)acetamido)-2-methylpyridin-3-yl)-2-(1-methyl-1H-pyrazol-4-yl)pyrazolo[5,1-b]thiazole-7-carboxamide] | 111 nM | > 7.5 µM | 
10 | Cc1ncc(NC(=O)CN2CCCC(F)(F)C2)cc1NC(=O)c1cnn2cc(-c3cnn(C)c3)sc12 [Example 49, N-(5-(2-(3,3-difluoropiperidin-1-yl)acetamido)-2-methylpyridin-3-yl)-2-(1-methyl-1H-pyrazol-4-yl)pyrazolo[5,1-b]thiazole-7-carboxamide] | 4.7 nM | > 7.5 µM | 
11 | COCCn1cc(-c2cn3ncc(C(=O)Nc4cc(NC(=O)CCN5CCC6(CC6)C5)cnc4C)c3s2)cn1 [Example 91, N-(5-(3-(5-azaspiro[2.4]heptan-5-yl)propanamido)-2-methylpyridin-3-yl)-2-(1-(2-methoxyethyl)-1H-pyrazol-4-yl)pyrazolo[5,1-b]thiazole-7-carboxamide] | 36.4 nM | > 7.5 µM | 
12 | COC1CCN(CC(=O)Nc2cnc(C)c(NC(=O)c3cnn4cc(-c5cnn(C)c5)sc34)c2)CC1 [Example 83, N-(5-(2-(4-methoxypiperidin-1-yl)acetamido)-2-methylpyridin-3-yl)-2-(1-methyl-1H-pyrazol-4-yl)pyrazolo[5,1-b]thiazole-7-carboxamide] | 44.1 nM | > 7.5 µM | 
13 | Cc1ncc(NC(=O)CN2CCOC[C@@H]2C)cc1NC(=O)c1cnn2cc(-c3cnn(C)c3)sc12 [Example 74, (S)-2-(1-methyl-1H-pyrazol-4-yl)-N-(2-methyl-5-(2-(3-methylmorpholino)acetamido)pyridin-3-yl)pyrazolo[5,1-b]thiazole-7-carboxamide] |  | > 7.5 µM | 41.6 nM
14 | Cc1ncc(NC(=O)CCN2CCCC2(C)C)cc1NC(=O)c1cnn2cc(-c3cnn(CCO)c3)sc12 [Example 88, N-(5-(3-(2,2-dimethylpyrrolidin-1-yl)propanamido)-2-methylpyridin-3-yl)-2-(1-(2-hydroxyethyl)-1H-pyrazol-4-yl)pyrazolo[5,1-b]thiazole-7-carboxamide] | 141 nM | > 7.5 µM | 
15 | Cc1ncc(NC(=O)CN2CC3CC(C2)O3)cc1NC(=O)c1cnn2cc(-c3cnn(C)c3)sc12 [Example 45, N-(5-(2-(6-oxa-3-azabicyclo[3.1.1]heptan-3-yl)acetamido)-2-methylpyridin-3-yl)-2-(1-methyl-1H-pyrazol-4-yl)pyrazolo[5,1-b]thiazole-7-carboxamide] | 75.4 nM | > 7.5 µM | 
16 | Cc1ncc(NC(=O)CN2CCS(=O)(=O)CC2)cc1NC(=O)c1cnn2cc(-c3cnn(C)c3)sc12 [Example 59, N-(5-(2-(1,1-dioxidothiomorpholino)acetamido)-2-methylpyridin-3-yl)-2-(1-methyl-1H-pyrazol-4-yl)pyrazolo[5,1-b]thiazole-7-carboxamide] | > 3000 nM | > 7.5 µM | 
17 | Cc1ncc(NC(=O)CN2[C@H](C)COC[C@@H]2C)cc1NC(=O)c1cnn2cc(-c3cnn(C)c3)sc12 [Example 71, N-(5-(2-((3S,5R)-3,5-dimethylmorpholino)acetamido)-2-methylpyridin-3-yl)-2-(1-methyl-1H-pyrazol-4-yl)pyrazolo[5,1-b]thiazole-7-carboxamide] | 90.9 nM | > 7.5 µM | 
18 | Cc1ncc(C(=O)NCCN2CCCC23CC3)cc1NC(=O)c1cnn2cc(-c3cnn(C)c3)sc12 [Example 2, N-(5-((2-(4-azaspiro[2.4]heptan-4-yl)ethyl)carbamoyl)-2-methylpyridin-3-yl)-2-(1-methyl-1H-pyrazol-4-yl)pyrazolo[5,1-b]thiazole-7-carboxamide] | 30.2 nM | > 7.5 µM | 
19 | Cc1ncc(NC(=O)CN2CCn3ccnc3C2)cc1NC(=O)c1cnn2cc(-c3cnn(C)c3)sc12 [Example 75, N-(5-(2-(5,6-dihydroimidazo[1,2-a]pyrazin-7 (8H)-yl)acetamido)-2-methylpyridin-3-yl)-2-(1-methyl-1H-pyrazol-4-yl)pyrazolo[5,1-b]thiazole-7-carboxamide] | 2750 nM | > 7.5 µM | 
20 | COCCn1cc(-c2cn3ncc(C(=O)Nc4cc(NC(=O)CCN5CC(C)(C)C5)cnc4C)c3s2)cn1 [Example 93, N-(5-(3-(3,3-dimethylazetidin-1-yl)propanamido)-2-methylpyridin-3-yl)-2-(1-(2-methoxyethyl)-1H-pyrazol-4-yl)pyrazolo[5,1-b]thiazole-7-carboxamide] | 66 nM | > 7.5 µM | 
21 | Cc1ncc(NC(=O)CN2CCO[C@H](C)C2)cc1NC(=O)c1cnn2cc(-c3cnn(C)c3)sc12 [Example 54, (R)-2-(1-methyl-1H-pyrazol-4-yl)-N-(2-methyl-5-(2-(2-methylmorpholino)acetamido)pyridin-3-yl)pyrazolo[5,1-b]thiazole-7-carboxamide] | 11.4 nM | > 7.5 µM | 
22 | COCCn1cc(-c2cn3ncc(C(=O)Nc4cc(NC(=O)CCN5C[C@@H]6CC[C@H]5C6)cnc4C)c3s2)cn1 [Example 92, N-(5-(3-((1S,4R)-2-azabicyclo[2.2.1]heptan-2-yl)propanamido)-2-methylpyridin-3-yl)-2-(1-(2-methoxyethyl)-1H-pyrazol-4-yl)pyrazolo[5,1-b]thiazole-7-carboxamide] | 122 nM | > 7.5 µM | 
23 | Cc1ncc(NC(=O)CN2CCC3(CC2)COC3)cc1NC(=O)c1cnn2cc(-c3cnn(C)c3)sc12 [Example 46, N-(5-(2-(2-oxa-7-azaspiro[3.5]nonan-7-yl)acetamido)-2-methylpyridin-3-yl)-2-(1-methyl-1H-pyrazol-4-yl)pyrazolo[5,1-b]thiazole-7-carboxamide] | 85.5 nM | > 7.5 µM | 
24 | COCCn1cc(-c2cn3ncc(C(=O)Nc4cc(NC(=O)C5(CN6CCCC6(C)C)CC5)cnc4C)c3s2)cn1 [Example 487, N-(5-(1-((2,2-dimethylpyrrolidin-1-yl)methyl)cyclopropane-carboxamido)-2-methylpyridin-3-yl)-2-(1-(2-methoxyethyl)-1H-pyrazol-4-yl)pyrazolo[5,1-b]thiazole-7-carboxamide] | 42.6 nM | > 7.5 µM | 
25 | Cc1ncc(NC(=O)CN2CCOCC23CC3)cc1NC(=O)c1cnn2cc(-c3cnn(C)c3)sc12 [Example 47, N-(5-(2-(7-oxa-4-azaspiro[2.5]octan-4-yl)acetamido)-2-methylpyridin-3-yl)-2-(1-methyl-1H-pyrazol-4-yl)pyrazolo[5,1-b]thiazole-7-carboxamide] | 37.2 nM | > 7.5 µM | 
26 | Cc1ncc(NC(=O)OC[C@@H]2CCCN2C)cc1NC(=O)c1cnn2cc(-c3cn(C)nc3C)sc12 [Example 496, (S)-(1-methylpyrrolidin-2-yl)methyl (5-(2-(1,3-dimethyl-1H-pyrazol-4-yl)pyrazolo[5,1-b]thiazole-7-carboxamido)-6-methylpyridin-3-yl)carbamate] | 5.6 nM | > 7.5 µM | 
